Experimental data published in the NIST ThermoML archive (doi:10.1021/acs.jced.5b00256).
Numbers after ± are expanded uncertainties.

What was measured:
[1] = relative permittivity at various frequencies (dimensionless); settings: 100 kPa, Liquid, Frequency=2 MHz, Parallel plate capacitor
[2] = 101.33 kPa, Liquid, Pycnometric method
[3] = refractive index (Na D-line) (dimensionless); settings: 100 kPa, Liquid, Standard Abbe refractometry
[4] = relative permittivity at various frequencies (dimensionless); xn = mol fraction of the nth substance listed; settings: 100 kPa, Liquid, Frequency=2 MHz, Parallel plate capacitor, x1 = 1
[5] = refractive index (Na D-line) (dimensionless); xn = mol fraction of the nth substance listed; settings: 100 kPa, Liquid, Standard Abbe refractometry, x1 = 1

Row | Structure (SMILES) | relative permittivity ([1]; 303.15 K) | relative permittivity ([1]; 313.15 K) | relative permittivity ([1]; 323.15 K) | relative permittivity ([1]; 333.15 K) | mass density ([2]; 303.15 K) | mass density ([2]; 313.15 K) | mass density ([2]; 323.15 K) | mass density ([2]; 333.15 K) | refractive index ([3]; 303.15 K) | refractive index ([3]; 313.15 K) | refractive index ([3]; 323.15 K) | refractive index ([3]; 333.15 K) | relative permittivity ([4]; 303.15 K) | relative permittivity ([4]; 313.15 K) | relative permittivity ([4]; 323.15 K) | relative permittivity ([4]; 333.15 K) | refractive index ([5]; 303.15 K) | refractive index ([5]; 313.15 K) | refractive index ([5]; 323.15 K) | refractive index ([5]; 333.15 K)
1 | CCCO [propan-1-ol] | 19.49 ± 0.6 | 18.53 ± 0.6 | 17.59 ± 0.6 | 16.03 ± 0.6 | 793.9 ± 6 kg/m3 | 791.7 ± 6 kg/m3 | 784.4 ± 6 kg/m3 | 775.6 ± 6 kg/m3 | 1.383 ± 0.002 | 1.38 ± 0.002 | 1.376 ± 0.002 | 1.371 ± 0.002 | – | – | – | – | – | – | – | –
2 | COc1cccc(Br)c1 [1-bromo-3-methoxybenzene] | 7.01 ± 0.6 | 6.85 ± 0.6 | 6.74 ± 0.6 | 6.6 ± 0.6 | 1467.6 ± 6.1 kg/m3 | – | – | – | 1.56 ± 0.002 | 1.558 ± 0.002 | 1.553 ± 0.002 | 1.55 ± 0.002 | – | – | – | – | – | – | – | –
3 | CCCO [propan-1-ol] + COc1cccc(Br)c1 | – | – | – | – | – | – | – | – | – | – | – | – | 19.49 ± 0.6 | 18.53 ± 0.6 | 17.59 ± 0.6 | 16.03 ± 0.6 | 1.383 ± 0.002 | 1.38 ± 0.002 | 1.376 ± 0.002 | 1.371 ± 0.002
